Among the targets are Cytochrome P450 2D6 (Homo sapiens, UniProt P10635); Cytochrome P450 3A4 (Homo sapiens, UniProt P08684); Cytochrome P450 2C9 (Homo sapiens, UniProt P11712).
Test [1] addresses FAD-linked sulfhydryl oxidase ALR (Homo sapiens, UniProt P55789). In words: inhibitors of human ALR sulfhydryl oxidase, dose response, biochemical, H2O2 detection, luminescence, cherry-pick (AID 493248).
A short description of test [2]: inhibitors of firefly luciferase expression or activity, dose response, H4 neuroglioma cells, luminescence (AID 1990). The format is functional, cell-based.
Test [3] in a line: Luminescence Cell-Based Dose Response HTS to Identify Inhibitors of 5'UTR Stem-Loop Driven Prion Protein mRNA Translation in H4 Neuroglioblastoma Cells. [Related pubchem assays: 1827 (Project Summary), 1813 (Primary HTS)]. The format is functional.
For a further test, the system named is Streptococcus. Briefly: Group A Streptococcus viability loss, dose response, counter-screen for streptokinase expression inhibitor project, luminescence, BacTiterGlo (AID 1915).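 Also: potency for reduction of bacterial viability or growth.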 The format is functional, organism-based.
Test [4] concerns Streptococcus sp. 'group A'. In words: growth inhibition of control SK(-) GAS strain, dose response, counter-screen for streptokinase expression inhibitor project, luminescence, kanamycin, BacTiterGlo, confirmation (AID 1900). The format is functional, organism-based. (In general: Counterscreens check selectivity or assay interference.)
The nature of test [5]: inhibitors of SNCA 5'UTR-driven reporter translation, confirmation, H4 neuroglioma cells, luminescence (AID 1988). The format is functional, cell-based.
For test [6], the target named is T1, Short transient receptor potential channel 4 (Mus musculus, UniProt Q9QUQ5).
T1 sequence (Q9QUQ5 whole entry): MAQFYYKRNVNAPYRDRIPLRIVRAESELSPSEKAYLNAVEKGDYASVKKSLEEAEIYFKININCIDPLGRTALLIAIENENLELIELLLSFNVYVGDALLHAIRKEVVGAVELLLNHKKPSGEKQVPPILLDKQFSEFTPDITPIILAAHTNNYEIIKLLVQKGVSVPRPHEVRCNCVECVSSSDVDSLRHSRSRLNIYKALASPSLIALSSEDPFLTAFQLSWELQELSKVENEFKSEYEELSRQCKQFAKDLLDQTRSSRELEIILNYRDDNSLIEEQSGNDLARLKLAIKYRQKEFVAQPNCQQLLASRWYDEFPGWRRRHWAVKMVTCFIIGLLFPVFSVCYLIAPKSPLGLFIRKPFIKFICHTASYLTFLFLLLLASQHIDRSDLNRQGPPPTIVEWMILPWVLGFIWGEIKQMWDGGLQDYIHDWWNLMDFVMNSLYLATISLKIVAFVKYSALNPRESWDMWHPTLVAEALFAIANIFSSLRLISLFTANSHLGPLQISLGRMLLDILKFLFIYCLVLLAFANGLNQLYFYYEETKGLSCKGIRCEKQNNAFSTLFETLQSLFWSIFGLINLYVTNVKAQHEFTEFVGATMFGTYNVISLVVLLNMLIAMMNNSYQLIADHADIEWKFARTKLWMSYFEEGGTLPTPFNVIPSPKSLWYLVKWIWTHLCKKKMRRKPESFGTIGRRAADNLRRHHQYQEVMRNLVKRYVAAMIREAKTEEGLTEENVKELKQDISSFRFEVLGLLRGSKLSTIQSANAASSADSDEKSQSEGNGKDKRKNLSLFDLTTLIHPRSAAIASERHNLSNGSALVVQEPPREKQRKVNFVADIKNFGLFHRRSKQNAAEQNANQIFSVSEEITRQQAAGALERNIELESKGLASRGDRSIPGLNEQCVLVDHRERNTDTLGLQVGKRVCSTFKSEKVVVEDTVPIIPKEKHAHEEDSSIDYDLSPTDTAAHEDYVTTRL
In words: mouse TRPC4 channel activators, dose response, cell-based, HEK293 TRPC4/mu-opioid, Fluo-4 calcium (AID 434937). The format is functional.

The next test has as its target Genome polyprotein (dengue virus type 2, UniProt P29990). In words: Dengue-2 NS5 methyltransferase inhibitors, primary screen, biochemical, confirmation dose response (AID 588689). Type of test: functional.
A further test has as its system H9c2. Briefly: cells. The format is functional, cell-based. Conditions: Rattus norvegicus, H9c2, Myocardium.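 Also: confirmatory concentration-response retest of ultra-high-throughput screening hits for modulation of myocardial damage; cell death induced by hydrogen peroxide oxidative stress; compound pretreatment for 60 min then peroxide exposure for 2 h; potency is for protecting the cells against peroxide damage rather than for killing them.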
Test [7] is described as follows: C. albicans growth with fluconazole, confirmation, fluorescence, retest (AID 2467). The format is functional, cell-based.
Test [8] in a line: inhibitors of intracellular T. cruzi replication, confirmation, NIH3T3 host cells, beta-gal luminescence (AID 2044).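 Also: intracellular parasites grown in NIH/3T3 mouse fibroblasts as host cells; luminescent beta-galactosidase reporter signal from transgenic T. cruzi replicating inside host cells; inhibitors lower the luminescence signal.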 The format is functional, cell-based.
Test [9] is described as follows: NIH-3T3 fibroblast cytotoxicity, dose response, cytotoxicity control, cell-based, fluorescence, Alamar Blue, secondary assay (AID 2327).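 Also: NIH-3T3 mouse fibroblasts cultured with fluconazole at 8 µg/mL.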 Type of test: functional. A general note: The colour change of resazurin is a common sign of viable cells or microbes.
The next test deals with Vero. Briefly: cells. Type of test: functional. Particulars: Chlorocebus sabaeus.
A short description of test [10]: cytotoxicity toward NIH3T3 fibroblasts, dose response, counter-screen, cell-based, ATP luminescence, mouse fibroblasts (AID 2010).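 Also: cells exposed to compound for about 90 hours before reading.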 The format is functional.
In test [11] the target is Glucose-6-phosphate 1-dehydrogenase (Homo sapiens, UniProt P11413). Briefly: human G6PD enzyme inhibitors, dose response, selectivity assay for P. falciparum G6PD inhibitor project, biochemical, fluorescence (AID 504792). Type of test: functional.
For a further test, the target named is T2, Cytochrome P450 1A2 (Homo sapiens, UniProt P05177).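 Also: PubChem cytochrome P450 panel assay, CYP1A2 panel member.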
T2 sequence (P05177 whole entry): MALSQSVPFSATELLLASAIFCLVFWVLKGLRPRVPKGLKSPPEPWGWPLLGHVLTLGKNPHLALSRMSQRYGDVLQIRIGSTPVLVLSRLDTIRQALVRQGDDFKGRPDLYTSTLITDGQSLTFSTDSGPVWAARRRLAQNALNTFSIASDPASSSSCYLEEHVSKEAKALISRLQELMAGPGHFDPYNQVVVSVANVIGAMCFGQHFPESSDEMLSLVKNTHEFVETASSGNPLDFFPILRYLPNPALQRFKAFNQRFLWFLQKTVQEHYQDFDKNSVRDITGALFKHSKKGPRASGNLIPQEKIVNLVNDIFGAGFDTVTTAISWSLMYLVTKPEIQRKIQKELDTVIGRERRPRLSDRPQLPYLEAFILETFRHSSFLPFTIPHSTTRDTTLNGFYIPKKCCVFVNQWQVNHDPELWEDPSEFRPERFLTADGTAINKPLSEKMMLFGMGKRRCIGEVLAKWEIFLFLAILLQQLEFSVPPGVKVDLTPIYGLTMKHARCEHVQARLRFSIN

The nature of test [12]: Luminescence Cell-Based Dose Retest to Confirm Inhibitors of Cancer Stem Cells. [Related pubchem assays (depositor defined):AID2717, AID2721]. The format is functional. Particulars: Homo sapiens.

SMILES strings stand for the structures. Active and inactive are the calls of the source.

By AC50 is commonly meant the concentration at which the activity in the assay is half-maximal. One may read the EC50 as the concentration that produces a half-maximal response. As a reminder, the IC50 is the concentration that inhibits the measured activity by half. The CC50 is the concentration at which the toxic effect on the cells reaches its halfway point.

In the case of `Cc1cc(C(=O)NNC(=O)CCN2CCN(c3ccccc3)CC2)c2ccccc2n1`, in [1], the AC50 was 5.94 µM (active).
In the case of `CCOc1ccc(/C=C2/Sc3ccc(C(=O)N4CCN(C(=O)c5ccco5)CC4)cc3N(C)C2=O)cc1OC`, the concentration for a half-maximal effect (EC50) is 105 µM (active) in test [2]; > 120 µM (not active) in [3]; 5.98 µM (active) in the test with Streptococcus; 2.63 µM (active) in [4]; 97.7 µM (active) in test [5].
Regarding `Oc1ccc(-c2onc3ccc(Cl)cc23)cc1`, the AC50 in test [1] is 6.97 µM (active).
On the same count and under the same terms, to `O=C(NCC(=O)N1CCN(c2ccccc2)CC1)c1cccs1` belongs 21.4 µM (active).
Regarding `CCn1c(S)nnc1-c1ccccc1O`, the AC50 in test [1] is 9.17 µM (active).
With `CC1CC(C)CN(CCCNC(=O)c2ccc3c(c2)N(Cc2ccccc2)C(=O)c2ccccc2[S+]3[O-])C1` (stereo unspecified), the EC50 in [6] was 0.841 µM (active).
For `Sc1nnc(/C=C/c2ccccc2)o1`, the AC50 in test [1] was 29.9 µM (active).
Regarding `CCOc1ccc(N2C(=O)NC(=O)/C(=C\c3ccccc3[N+](=O)[O-])C2=O)cc1`, the concentration for half-maximal inhibition (IC50) on Genome polyprotein is 30.5 µM (active).
Take `O=C(c1ccco1)N1CCC[C@@]2(CCN(c3ncccn3)C2)C1`: the AC50 at Cytochrome P450 2D6 was 25.1 µM (inconclusive).
Regarding `c1coc(-c2nnc3sc(-c4cccs4)nn23)c1`, in the test on H9c2, the IC50 is 15.6 µM (active).
Turning to `CCc1ccc(C(=O)c2cnc3ccc(OC)cc3c2N2CCN(CC)CC2)cc1`, in test [6], the EC50 is 5.96 µM (active).
Take `COc1cccc(C(=O)N(C)CC2CCN(CCc3cccc(C(F)(F)F)c3)CC2)c1`: the EC50 in [6] was 0.596 µM (active).
In the case of `COc1ccccc1C(=O)NNC(=S)NC(=O)c1cc(OC)c(OC)c(OC)c1`, the EC50 in the test on Streptococcus was 2.5 µM (active); in test [7] it was 2.49 µM (active); in test [8], 158 nM (active); in [9], > 150 µM (inactive); in test [4], 1.25 µM (active); in [10] it was 6.32 µM (active). Besides, the cytotoxic concentration (CC50) in the test on Vero was 13.6 µM (active).
As to `CCOC(=O)c1ccc(/[N+]([O-])=C/c2ccccc2)cc1`, the IC50 in test [11] was > 80 µM (inactive).
Consider `COc1ccc(CNc2ccnc(-c3ccccc3Cl)n2)c(OC)c1`, for which, on Cytochrome P450 2D6, the AC50 is 39.8 µM (inconclusive).
`Cc1cccc(NC(S)=Nc2ccc(Br)cc2)c1`: the concentration at half-maximal activity (AC50) at Cytochrome P450 3A4 is 25.1 µM (inconclusive); on Cytochrome P450 2D6, 8.91 µM (inconclusive).
In the case of `Cc1cccc(C(=O)N2CCc3cc(-c4csc(NC(=O)CN5CCCC5)n4)ccc32)c1`, in the test on Vero, the CC50 is > 25 µM (active).
Regarding `CC(C)(C)NS(=O)(=O)c1ccc(NC(=O)c2cc(-c3ccccc3)nc3ccccc23)cc1`, the EC50 is 2030 nM (active) in test [8] and > 60 µM (not active) in test [10]. For the same compound, the AC50 at Cytochrome P450 1A2 was 3.16 µM (inconclusive); on Cytochrome P450 2D6, 3.98 µM (inconclusive).
With `CC(C)c1nnc(NC(=O)c2cccc(-n3cnnn3)c2)s1`, the IC50 in [11] is 50 µM (inactive).
`CCN(CC)CCCOc1ccc(Cl)c(Cl)c1`: the concentration giving a half-maximal response (EC50) in test [6] is 2.37 µM (active).
The same measure, in the same setting: to `CC(=O)n1cc([C@H]2C=C(C(=O)NCc3ccccc3)O[C@@H](OCc3ccc(CO)cc3)C2)c2ccccc21` belongs 8.41 µM (active).
For the compound `Cc1ccc2nc(O)c(CN(CCCN3CCOCC3)C(=O)Nc3ccc(Cl)cc3)cc2c1`, the IC50 with H9c2 was > 79 µM (inactive).
With `Cc1c(/C=C/C(=O)c2ccc(Cl)s2)cnn1C`, the IC50 in [11] is > 80 µM (inactive).
Consider `CC(NC(=O)CCSc1nc(-c2ccco2)cc(C(F)(F)F)n1)c1ccccc1` (stereo unspecified), for which the AC50 on Cytochrome P450 2D6 and at Cytochrome P450 2C9 was 15.8 µM (inconclusive) in each case.
Consider `COc1ccc(C(=O)Nc2ccc(OCC(F)(F)C(F)F)c(C(F)(F)F)c2)cc1OC`, for which the figures for the AC50 (in [12]; on Cytochrome P450 2D6) were 3.78 µM (active) and 22.4 µM (inconclusive), respectively.
For the compound `Cc1cccc(C)c1OCCn1nc(C(=O)O)c2ccccc2c1=O`, in the test with H9c2, the IC50 is > 79 µM (inactive).
`O=c1oc2cc(Br)ccc2n1CSC1=NCCS1`: the AC50 in [1] was 0.033 µM (active).
With `O=C(NC12CC3CC(CC(C3)C1)C2)C12CC3CC(C1)CC(n1cnc(Cl)n1)(C3)C2`, the values for the AC50 on Cytochrome P450 3A4 and at Cytochrome P450 2D6 were 14.1 µM (inconclusive) and 11.2 µM (inconclusive), respectively.
As for `CN1CCc2nc3ccccc3c(C(=O)OCC(=O)N(CCC#N)c3ccccc3)c2C1`, in the test on H9c2, the IC50 is > 79 µM (inactive).
The same measure, in the same setting: for `COc1ccc(-c2csc(NC(=O)c3cccc(N4C(=O)CCC4=O)c3)n2)cc1OC` the value was > 79 µM (inactive).
Regarding `CC(C)c1ccc(NC2CCCN(C(=O)c3cnc4ccccn4c3=O)C2)cc1` (stereo unspecified), in [1], the half-maximal activity concentration (AC50) was 8.31 µM (active).
Turning to `CCOC(=O)C1=C(C)N=C(C)C(=C(O)OCC)C1C(=O)OCC(=O)NC(C)C` (stereo unspecified), in the test with H9c2, the IC50 is > 79 µM (inactive).
The same measure, in the same setting: to `CCN(CC(=O)Nc1cc(Cl)ccc1C)C(=O)C1CCN(c2ncnc3sc(C)c(C)c23)CC1` belongs 12.7 µM (active); to `O=C(N/N=C\c1ccccn1)c1cccc(C(=O)N/N=C\c2ccccn2)n1`, > 79 µM (inactive); to `Cc1ncc(CO)c2cc(C(=O)Nc3ccccc3Cl)/c(=N/c3cccc(C(N)=O)c3)oc12`, 12.4 µM (active).
Take `COc1cccc(/C=N/NC(=O)CSc2cccc3cccnc23)c1`: the IC50 in [11] is > 80 µM (inactive).
As to `COc1cc(/C=N/N2CCCCC2)cc([N+](=O)[O-])c1O`, the AC50 in test [1] was 2.71 µM (active).
For the compound `C=CCN1CCc2cccc3c2[C@@H]1Cc1ccc(O)c(O)c1-3`, the concentration at half-maximal activity (AC50) on Cytochrome P450 3A4, at Cytochrome P450 2D6 and on Cytochrome P450 2C9 was 31.6 µM (inconclusive) each time.
In the case of `O=[N+]([O-])c1ccc(N/N=C/c2cn(Cc3ccc(F)cc3)c3ccccc23)nc1`, the EC50 in [2] is 25.8 µM (active); in test [3], 15.2 µM (active); in test [5], 12 µM (active).
As for `COc1ccc(-n2cc(CNCCCn3ccnc3)c(-c3cccc(F)c3)n2)cc1`, the half-maximal cytotoxic concentration (CC50) in the test with Vero is > 25 µM (active).

(Values after ChEMBL document CHEMBL1201862, “PubChem BioAssay data set” (2004).)
